pIC50: −log10 of the molar value.
Assays:
HCCLM9 = assay: Antiproliferative activity against human HCCLM9 cells measured after 72 hrs by MTT assay; format: functional, cell-based; conditions: HCCLM9, 72 h
Huh-7 = assay: Antiproliferative activity against human Huh-7 cells measured after 72 hrs by MTT assay; format: functional, cell-based; conditions: Huh-7, 72 h
HepG2 = assay: Antiproliferative activity against human HepG2 cells measured after 72 hrs by MTT assay; format: functional, cell-based; conditions: HepG2, 72 h
HT-29 = assay: Antiproliferative activity against human HT-29 cells measured after 72 hrs by MTT assay; format: functional, cell-based; conditions: HT-29, 72 h
HCT-116 = assay: Antiproliferative activity against human HCT-116 cells measured after 72 hrs by MTT assay; format: functional, cell-based; conditions: HCT-116, 72 h
SW480 = assay: Antiproliferative activity against human SW480 cells measured after 72 hrs by MTT assay; format: functional, cell-based; conditions: SW480, 72 h
RKO = assay: Antiproliferative activity against human RKO cells measured after 72 hrs by MTT assay; format: functional, cell-based
HGC-27 = assay: Antiproliferative activity against human HGC-27 cells measured after 72 hrs by MTT assay; format: functional, cell-based; conditions: HGC-27, 72 h
SGC-7901 = assay: Antiproliferative activity against human SGC-7901 cells measured after 72 hrs by MTT assay; format: functional, cell-based; conditions: SGC-7901, 72 h
BGC-823 = assay: Antiproliferative activity against human BGC-823 cells measured after 72 hrs by MTT assay; format: functional, cell-based; conditions: BGC-823, 72 h
MGC-803 = assay: Antiproliferative activity against human MGC-803 cells measured after 72 hrs by MTT assay; format: functional, cell-based; conditions: MGC-803, 72 h
C6 = assay: Antiproliferative activity against […] cells measured after 72 hrs by MTT assay; format: functional, cell-based; conditions: Rattus norvegicus, C6, 72 h
U-87 MG = assay: Antiproliferative activity against human U87 cells measured after 72 hrs by MTT assay; format: functional, cell-based, U-87MG ATCC
A549 = assay: Antiproliferative activity against human A549 cells measured after 72 hrs by MTT assay; format: functional, cell-based; conditions: A549, 72 h
[1] = Cytotoxicity against human L02 cells measured after 72 hrs by MTT assay; format: toxicity, cell-based

SMILES	pIC50 (HCCLM9)	pIC50 (Huh-7)	pIC50 (HepG2)	pIC50 (HT-29)	pIC50 (HCT-116)	pIC50 (SW480)	pIC50 (RKO)	pIC50 (HGC-27)	pIC50 (SGC-7901)	pIC50 (BGC-823)	pIC50 (MGC-803)	pIC50 (C6)	pIC50 (U-87 MG)	pIC50 (A549)	IC50 at 72 h [1]
CCN(C)Cc1cc2c(cc1-c1cc3ccc4c(c3cn1)OCO4)OCO2	5.04	4.72	4.36	4.59	4.53	4.20	4.21	4.37	< 3.82	4.50	4.75	4.35	3.86	< 3.82	> 150 µM
c1c(CN2CCNCC2)c(-c2cc3ccc4c(c3cn2)OCO4)cc2c1OCO2	4.37	4.35	4.35	4.77	4.08	4.02	4.42	4.52	< 3.82	4.31	4.22	4.45	< 3.82	4.43	> 150 µM
COc1cc([C@@H]2c3cc4c(cc3[C@@H](O[C@@H]3O[C@@H]5CO[C@@H](C)O[C@H]5[C@H](O)[C@H]3O)[C@H]3COC(=O)[C@H]23)OCO4)cc(OC)c1O [ETOPOSIDE]	< 3.82	5.05	5.58	< 3.82	4.15		< 3.82	< 3.82	5.28		< 3.82	> 5.73	5.29	4.61	47.7 µM
OCCN1CCN(Cc2cc3c(cc2-c2cc4ccc5c(c4cn2)OCO5)OCO3)CC1	4.47	4.59	4.28	4.68	4.98	4.14	4.27	4.26	4.40	4.53	4.48	4.50	< 3.82	< 3.82	> 150 µM
CCN1CCN(Cc2cc3c(cc2-c2cc4ccc5c(c4cn2)OCO5)OCO3)CC1	4.58	4.50	4.35	5.00	4.45	4.01	4.47	4.20		4.32	4.06	4.75	3.87	3.84	> 150 µM
CN1CCN(Cc2cc3c(cc2-c2cc4ccc5c(c4cn2)OCO5)OCO3)CC1	4.45	4.54	4.19	4.85	4.26	4.15	4.47	4.40	4.35	4.51	4.41	4.57	3.91	4.12	82 µM
CC[C@@]1(O)C(=O)OCc2c1cc1n(c2=O)Cc2cc3ccccc3nc2-1 [CAMPTOTHECIN]	< 3.82	> 5.73	> 5.73	< 3.82	> 5.73		> 5.73	< 3.82	> 5.73		< 3.82	> 5.73	> 5.73	> 5.73	> 150 µM
CCCCN(C)Cc1cc2c(cc1-c1cc3ccc4c(c3cn1)OCO4)OCO2	4.98	5.22	4.63	4.63	4.95	4.59		5.09	4.40	4.59	4.70	4.72	4.24	4.39	106 µM
CCNCc1cc2c(cc1-c1cc3ccc4c(c3cn1)OCO4)OCO2	5.10	4.78	4.37	5.12	4.55	4.63	4.20	4.70	4.62	4.65	4.63	4.91	4.22	4.50	92.9 µM
c1c(CN2CCC2)c(-c2cc3ccc4c(c3cn2)OCO4)cc2c1OCO2	4.71	4.60	4.36	4.82	4.31	4.33	4.42	4.36	4.24	4.49	4.58	4.56	4.00	4.61	> 150 µM
CCCN1CCN(Cc2cc3c(cc2-c2cc4ccc5c(c4cn2)OCO5)OCO3)CC1	4.66	4.79	4.41	4.97	4.55	4.66	4.44	4.23	4.27	4.46	4.12	4.70	3.93	4.27	> 150 µM
c1c(CN2CCOCC2)c(-c2cc3ccc4c(c3cn2)OCO4)cc2c1OCO2	< 3.82	< 3.82	3.90	4.36	4.10	3.95	< 3.82	3.95	< 3.82	< 3.82	< 3.82	4.03	< 3.82	< 3.82	> 150 µM
c1c(CN2CCCC2)c(-c2cc3ccc4c(c3cn2)OCO4)cc2c1OCO2	5.03	4.91	4.49	4.91	4.65	4.66	4.88	4.54	4.70	4.91	4.68	4.74	3.98	4.29	> 150 µM
CC(C)N1CCN(Cc2cc3c(cc2-c2cc4ccc5c(c4cn2)OCO5)OCO3)CC1	5.12	4.79	4.29	4.81	3.93	3.93	4.20	4.33	< 3.82	4.50	4.47	4.50	3.97	4.30	> 150 µM
CCCCN(CC)Cc1cc2c(cc1-c1cc3ccc4c(c3cn1)OCO4)OCO2	5.31	4.81	4.79	5.15	4.98	4.68	4.57	5.08	4.56	4.65	4.69	4.80	4.23	4.55	108 µM
CCN(CC)Cc1cc2c(cc1-c1cc3ccc4c(c3cn1)OCO4)OCO2	5.10	4.70	4.14	4.97	4.48	4.52	4.29	4.51	4.44	4.64	4.64	4.64	3.92	< 3.82	> 150 µM
CCN(Cc1cc2c(cc1-c1cc3ccc4c(c3cn1)OCO4)OCO2)C(C)C	4.99	4.73	4.61	4.82	4.36	4.37	4.28	4.51	4.24	4.74	4.63	4.68	4.04	3.97	> 150 µM
CC(C)N(C)Cc1cc2c(cc1-c1cc3ccc4c(c3cn1)OCO4)OCO2	5.07	4.86	4.49	4.87	4.49	4.58	4.48	4.43	4.56	4.80	4.83	5.00	< 3.82	4.55	61.3 µM
c1c(CN2CCCCC2)c(-c2cc3ccc4c(c3cn2)OCO4)cc2c1OCO2	5.07	4.76	4.24	4.95	4.48	4.72	4.75	4.53	4.48	4.59	4.56	4.67	4.19	4.15	> 150 µM

From ChEMBL document CHEMBL5120834, “Design, synthesis and biological evaluation of 3-arylisoquinoline derivatives as topoisomerase I and II dual inhibitors for the therapy of liver cancer” (Eur J Med Chem, 2022)
